MIC data for one compound are collected here from publication PMC4859512, “Polyamino-Isoprenic Derivatives Block Intrinsic Resistance of P. aeruginosa to Doxycycline and Chloramphenicol In Vitro” (PLoS ONE, 2016).

SMILES strings stand for the structures. Converted amounts (≈) assume the structure as drawn.

Details in all cases: Pseudomonas aeruginosa, read-out: Minimal Inhibitory Concentration
One assay deals with P. aeruginosa PA01 (wt). The assay is described as follows: Antibiotic susceptibility testing (broth micro-dilution MIC), strain PA01. Format: cell-based, Pseudomonas aeruginosa. How it is done: (§1) Experiments were performed on the BAC-SCREEN platform of the UMR-MD1, with a Freedom EVO 150 liquid handling system (Tecan, Lyon, France).
(§2) The same experiment was performed using chloramphenicol (4 mg/L) in combination with 3 (10 μM final concentration). […] These experiments were performed to study the effect of our compounds on the natural resistance of P. aeruginosa. […] Experiments were performed with the ß-lactams ceftazidime and ticarcillin and ciprofloxacin and amikacin.

In assay [1] the test system is P. aeruginosa PT629 (Mex AB overproducer). Put plainly: Antibiotic susceptibility testing (broth micro-dilution MIC), strain PT629. The format is cell-based, Pseudomonas aeruginosa. How it is done:
as §1
(§3) We concluded that compound 3 was the best compound and suitable for a more detailed study. The same experiment was performed using chloramphenicol (4 mg/L) in combination with 3 (10 μM final concentration). Amongst the 20 clinical isolates, the growth of 15 (75%) was impaired, while 5 (25%) were resistant (data not shown). These experiments were performed to study the effect of our compounds on the natural resistance of P. aeruginosa. In addition, we were wondering if compound 3 could also increase susceptibility to other antibiotic families including ß-Lactams, fluoroquinolones and aminoglycosides, that are representative of the main classes of anti-pseudomonal agents. Experiments were performed with the ß-lactams ceftazidime and ticarcillin and ciprofloxacin and amikacin. […] . […] To better characterize compound 3, we first searched for the minimum concentration of compound that allowed killing of bacteria by doxycycline, and PAßN was used as the reference molecule.
For orientation: In broth dilution the organism is exposed to a series of concentrations in liquid medium.

Assay [2] deals with P. aeruginosa PA01 ERY^R (Mex CD overproducer). Put plainly: microbe, parasite or virus in culture. Format: cell-based, Pseudomonas aeruginosa. The procedure: as §1, §2
The subject of assay [3] is P. aeruginosa PA0-7H (Mex EF overproducer). Put plainly: Antibiotic susceptibility testing (broth micro-dilution MIC), strain PA0-7H. The format is cell-based, Pseudomonas aeruginosa. How it is done:
as §1, §3

For assay [4], the system named is P. aeruginosa CMZ091 (Mex XY overproducer). The assay is described as follows: Antibiotic susceptibility testing (broth micro-dilution MIC), strain CMZ091. Format: cell-based, Pseudomonas aeruginosa. The procedure:
as §1, §3

Assay [5] concerns P. aeruginosa FB1 (Mex B deleted). The assay is described as follows: Antibiotic susceptibility testing (broth micro-dilution MIC), strain FB1. The format is cell-based. The procedure:
as §1

On to `O=C(N[C@H](CO)[C@H](O)c1ccc([N+](=O)[O-])cc1)C(Cl)Cl` [chloramphenicol], for which the MIC is 256 mg/L with P. aeruginosa PA01 (wt); 512 mg/L in assay [1]; 256 mg/L in assay [2]; over 1020 mg/L in assay [3]; 256 mg/L in assay [4]; 8 mg/L (≈ 24.8 µM) in assay [5].
